Test results taken from patent publication USRE30731E, “Enkephalin analogues” (priority 1977, dated 1981).

Tests used:
mouse vas deferens = mouse vas deferens (M.V.D.) assay; type: cell-based; conditions: Met Enkephalin = 100%
From the text: (II)M.V.D. stands for mouse vas deferens
Kosterhtz, H. W. & Leslie. F. M. Br. J. Pharmac. 53, 371, 381,

rat brain membranes = experiment: radio receptor assay (R.R.A.): displacement of tritiated naloxone from rat brain membranes; type: binding; conditions: based on concentration displacing 50% of (3H)naloxone (1 nM) from rat brain membranes; 0.1 M NaCl/50 mM Tris pH 7.4; 15 minutes; bacitracin
Description: (III)R.R.A. stands for radio receptor assay; based on the concentration
required to displace 50% of tritiated naloxone from rat brain membranes.
The displacements .[.replacements.]. were carried out against (^3
H)naloxane (lnM) in 0.1 M sodium chloride/50mM Tris buffer at pH 7.4;
incubations were for 15 minutes in the .Iadd.presence
.Iaddend..[.absence.]. of bacitracin. For general reference to the method
see literature as discussed in "Opiate Receptor Mechanisms". S. H. Snyder
and S. Matthysse eds, MIT Press, 1975.

rats = experiment: tail flick assay, intraventricular administration; type: in vivo, rat; conditions: administered intraventricularly to rats
From the text: Also, we have indications of in vivo analgesic effects of the analogues.

5-Amino-6-(4'-hdyroxyphenyl)-hexanoyl-glycyl-L-phenylalanyl-L-methionine a mide [Analogue H211]
Activity Relative to Met Enkephalin, M.V.D. (mouse vas deferens): 0.9% | Activity Relative to Met Enkephalin, R.R.A. (rat brain membranes): 8% | analgesia (tail flick assay) (rats): analgesia lasting for several minutes
